Ki and EC50 data for 13 compounds are collected here from patent US20160158377A1, “BCL-XL Inhibitory Compounds and Antibody Drug Conjugates Including the Same” (AbbVie Inc., priority 2014, published 2016).

Read-outs that look alike come from different tables or passages of the source.

The target of experiment [1] is Bcl-xL (Homo sapiens, UniProt Q07817). Put plainly: TR-FRET Bcl-xL binding assay (competition with probe F-Bak). The procedure:
For the assay, test compounds were serially diluted in DMSO starting at 50 μM (2× starting concentration; 10% DMSO) and 10 μL transferred into a 384-well plate. 10 μL of a protein/probe/antibody mix was then added to each well at final concentrations listed below:
The samples were then mixed on a shaker for 1 minute and incubated for an additional 2 hours at room temperature. For each assay plate, a probe/antibody and protein/antibody/probe mixture were included as a negative and a positive control, respectively. Fluorescence was measured on the Envision (Perkin Elmer) using a 340/35 nm excitation filter and 520/525 (F-Bak) and 495/510 nm (Tb-labeled anti-his antibody) emission filters. Dissociation constants (Ki) were determined using Wang's equation (Wang, 1995, FEBS Lett. 360:111-114). The TR-FRET assay can be performed in the presence of varying concentrations of human serum (HS) or fetal bovine serum (FBS). Compounds were tested both without HS and in the presence of 1% HS.

Experiment [2] deals with Molt-4 human acute lymphoblastic leukemia cells. As to the kind of experiment: Molt-4 cell viability assay. The format is cell-based. The settings on record: 10% human serum, 48 hours, CellTiter-Glo, read-out: Molt-4 Viability EC50 (nM, 10% HS). The procedure: In one exemplary set of conditions, Molt-4 (ATCC, Manassas, Va.) human acute lymphoblastic leukemia cells were plated 12,500 cells per well in 384-well tissue culture plates (Corning, Corning, N.Y.) in a total volume of 25 μL tissue culture medium supplemented with 10% human serum (Sigma-Aldrich, St. Louis, Mo.) and treated with a 3-fold serial dilution of the compounds of interest from 10 μM to 0.0005 μM. Each concentration was tested in duplicate at least 3 separate times. The number of viable cells following 48 hours of compound treatment was determined using the CellTiter-Glo® Luminescent Cell Viability Assay according to the manufacturer's recommendations (Promega Corp., Madison, Wis.). Compounds were tested in the presence of 10% HS.

Where [3] appears, read: in the presence of 1% human serum (HS), read-out: Bcl-xL Binding Ki (nM, 1% HS).
Where [4] appears, read: without human serum, read-out: Bcl-xL Binding Ki.

Sequence of Bcl-xL (Q07817 whole entry): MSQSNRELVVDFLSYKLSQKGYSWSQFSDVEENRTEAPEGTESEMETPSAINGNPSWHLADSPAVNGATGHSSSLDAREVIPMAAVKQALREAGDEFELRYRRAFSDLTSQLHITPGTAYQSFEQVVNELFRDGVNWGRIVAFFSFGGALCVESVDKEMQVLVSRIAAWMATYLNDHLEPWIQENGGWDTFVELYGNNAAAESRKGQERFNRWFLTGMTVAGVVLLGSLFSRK

On to `CNCCOC12CC3(C)CC(C)(CC(Cn4ncc(-c5ccc(-c6cc7cccc(C(=O)Nc8nc9ccccc9s8)c7[nH]6)nc5C(=O)O)c4C)(C3)C1)C2` [Compound W3.27, 6-[7-(1,3-benzothiazol-2-ylcarbamoyl)-1H-indol-2-yl]-3-[1-({3,5-dimethyl-7-[2-(methylamino)ethoxy]tricyclo[3.3.1.1^3,7]dec-1-yl}methyl)-5-methyl-1H-pyrazol-4-yl]pyridine-2-carboxylic acid], for which, in experiment [1] (setting [3]), the Ki stood at 0.12 nM. Further, the EC50 in experiment [2] came to 3.95 nM.
As for `Cc1c(-c2ccc(N3CCc4scc(C(=O)Nc5nc6ccccc6s5)c4C3)nc2C(=O)O)cnn1CC12CC3(C)CC(C)(C1)CC(OCCN)(C3)C2` [Compound W3.19, 3-(1-{[3-(2-aminoethoxy)-5,7-dimethyltricyclo[3.3.1.1^3,7]dec-1-yl]methyl}-5-methyl-1H-pyrazol-4-yl)-6-[3-(1,3-benzothiazol-2-ylcarbamoyl)-6,7-dihydrothieno[3,2-c]pyridin-5(4H)-yl]pyridine-2-carboxylic acid], the inhibition constant (Ki) in experiment [1] (setting [3]) worked out at 309 nM; in experiment [1] (setting [4]), 21 nM. In addition, in experiment [2], the EC50 is above 10000 nM.
The corresponding values for `CNCCOC12CC3(C)CC(C)(CC(Cn4ncc(-c5ccc(N6CCc7c(OC)ccc(C(=O)Nc8nc9ccccc9s8)c7C6)nc5C(=O)O)c4C)(C3)C1)C2` [Compound W3.09, 6-[8-(1,3-benzothiazol-2-ylcarbamoyl)-5-methoxy-3,4-dihydroisoquinolin-2(1H)-yl]-3-[1-({3,5-dimethyl-7-[2-(methylamino)ethoxy]tricyclo[3.3.1.1^3,7]dec-1-yl}methyl)-5-methyl-1H-pyrazol-4-yl]pyridine-2-carboxylic acid] are 0.14 nM, below 0.001 nM and 3.8 nM.
`Cc1c(-c2ccc(-c3cnc4cccc(C(=O)Nc5nc6ccccc6s5)c4c3)nc2C(=O)O)cnn1CC12CC3(C)CC(C)(C1)CC(OCCN)(C3)C2` [Compound W3.43, 3-(1-{[3-(2-aminoethoxy)-5,7-dimethyltricyclo[3.3.1.1^3,7]decan-1-yl]methyl}-5-methyl-1H-pyrazol-4-yl)-6-{5-[(1,3-benzothiazol-2-yl)carbamoyl]quinolin-3-yl}pyridine-2-carboxylic acid]: the results for the Ki in experiment [1] (setting [3]) and in experiment [1] (setting [4]) were 0.07 nM and below 0.01 nM, respectively.
In the case of `Cc1c(-c2ccc(N3CCc4cccc(C(=O)Nc5nc6ccccc6s5)c4C3)nc2C(=O)O)cnn1CC12CC3(C)CC(C)(C1)CC(NC(=O)CN)(C3)C2` [Compound W3.40, 3-(1-{[3-(2-aminoacetamido)-5,7-dimethyltricyclo[3.3.1.1^3,7]decan-1-yl]methyl}-5-methyl-1H-pyrazol-4-yl)-6-{8-[(1,3-benzothiazol-2-yl)carbamoyl]-3,4-dihydroisoquinolin-2(1H)-yl}pyridine-2-carboxylic acid], the inhibition constant (Ki) in experiment [1] (setting [3]) worked out at 1.1 nM; in experiment [1] (setting [4]), 0.024 nM.
On to `CNCCN(C)c1cc2c(c(C(=O)Nc3nc4ccccc4s3)c1)CN(c1ccc(-c3cnn(CC45CC6(C)CC(C)(C4)CC(OCCOC)(C6)C5)c3C)c(C(=O)O)n1)CC2` [Compound W3.21, 6-[8-(1,3-benzothiazol-2-ylcarbamoyl)-6-{methyl[2-(methylamino)ethyl]amino}-3,4-dihydroisoquinolin-2(1H)-yl]-3-(1-{[3-(2-methoxyethoxy)-5,7-dimethyltricyclo[3.3.1.1^3,7]dec-1-yl]methyl}-5-methyl-1H-pyrazol-4-yl)pyridine-2-carboxylic acid], for which the inhibition constant Ki in experiment [1] (setting [3]) turned out to be 0.14 nM; in experiment [1] (setting [4]), 0.014 nM.
Take `Cc1c(-c2ccc(N3CCc4cccc(C(=O)Nc5nc6ccccc6s5)c4C3)nc2C(=O)O)cnn1CC12CC3(C)CC(C)(CC(CCCN)(C3)C1)C2` [Compound W3.42, 3-(1-{[3-(3-aminopropyl)-5,7-dimethyltricyclo[3.3.1.1^3,7]dec-1-yl]methyl}-5-methyl-1H-pyrazol-4-yl)-6-[8-(1,3-benzothiazol-2-ylcarbamoyl)-3,4-dihydroisoquinolin-2(1H)-yl]pyridine-2-carboxylic acid]: the inhibition constant Ki in experiment [1] (setting [3]) is 4.36 nM; in experiment [1] (setting [4]), 0.15 nM.
`Cc1c(-c2ccc(N3CCc4cccc(C(=O)Nc5nc6ccccc6s5)c4C3)nc2C(=O)O)cnn1CC12CC3(C)CC(C)(C1)CC(OCCNCCC(=O)N(C)C)(C3)C2` [Compound W3.38, 6-[8-(1,3-benzothiazol-2-ylcarbamoyl)-3,4-dihydroisoquinolin-2(1H)-yl]-3-(1-{[3-(2-{[3-(dimethylamino)-3-oxopropyl]amino}ethoxy)-5,7-dimethyltricyclo[3.3.1.1^3,7]dec-1-yl]methyl}-5-methyl-1H-pyrazol-4-yl)pyridine-2-carboxylic acid]: in experiment [2], the EC50 is 10.7 nM.
With `COCCOC12CC3(C)CC(C)(CC(Cn4ncc(-c5ccc(N6CCc7cc(N8CCC(N)C8)cc(C(=O)Nc8nc9ccccc9s8)c7C6)nc5C(=O)O)c4C)(C3)C1)C2` (centres unmarked) [Compound W3.17, 6-[6-(3-aminopyrrolidin-1-yl)-8-(1,3-benzothiazol-2-ylcarbamoyl)-3,4-dihydroisoquinolin-2(1H)-yl]-3-(1-{[3-(2-methoxyethoxy)-5,7-dimethyltricyclo[3.3.1.1^3,7]dec-1-yl]methyl}-5-methyl-1H-pyrazol-4-yl)pyridine-2-carboxylic acid], the values for the Ki in experiment [1] (setting [3]) and in experiment [1] (setting [4]) were 2.3 nM and 0.49 nM, respectively.
The corresponding values for `CNCCOC12CC3(C)CC(C)(CC(Cn4ncc(-c5ccc(N6CCc7cc(OC)cc(C(=O)Nc8nc9ccccc9s8)c7C6)nc5C(=O)O)c4C)(C3)C1)C2` [Compound W3.22, 6-[8-(1,3-benzothiazol-2-ylcarbamoyl)-6-methoxy-3,4-dihydroisoquinolin-2(1H)-yl]-3-[1-({3,5-dimethyl-7-[2-(methylamino)ethoxy]tricyclo[3.3.1.1^3,7]dec-1-yl}methyl)-5-methyl-1H-pyrazol-4-yl]pyridine-2-carboxylic acid] are 0.108 nM and below 0.01 nM.
`Cc1c(-c2ccc(N3CCc4cccc(C(=O)Nc5nc6ccccc6s5)c4C3)nc2C(=O)O)cnn1CC12CC3(C)CC(C)(C1)CC(OCCNCCS(=O)(=O)N(C)C)(C3)C2` [Compound W3.36, 6-(8-(benzo[d]thiazol-2-ylcarbamoyl)-3,4-dihydroisoquinolin-2(1H)-yl)-3-(1-((3-(2-((2-(N,N-dimethylsulfamoyl)ethyl)amino)ethoxy)-5,7-dimethyladamantan-1-yl)methyl)-5-methyl-1H-pyrazol-4-yl)picolinic acid]: the 50% effective concentration (EC50) in experiment [2] is 6.9 nM.
With `CNCCOC12CC3(C)CC(C)(CC(Cn4ncc(-c5ccc(-c6cnc7cccc(C(=O)Nc8nc9ccccc9s8)c7c6)nc5C(=O)O)c4C)(C3)C1)C2` [Compound W3.10, 6-[5-(1,3-benzothiazol-2-ylcarbamoyl)quinolin-3-yl]-3-[1-({3,5-dimethyl-7-[2-(methylamino)ethoxy]tricyclo[3.3.1.1^3,7]dec-1-yl}methyl)-5-methyl-1H-pyrazol-4-yl]pyridine-2-carboxylic acid], the Ki in experiment [1] (setting [3]) is 0.0259 nM; in experiment [1] (setting [4]) it was below 0.001 nM.
The corresponding values for `Cc1c(-c2ccc(-c3ccc4nccc(C(=O)Nc5nc6ccccc6s5)c4c3)nc2C(=O)O)cnn1CC12CC3(C)CC(C)(C1)CC(OCCN)(C3)C2` [Compound W3.23, 3-(1-{[3-(2-aminoethoxy)-5,7-dimethyltricyclo[3.3.1.1^3,7]dec-1-yl]methyl}-5-methyl-1H-pyrazol-4-yl)-6-[4-(1,3-benzothiazol-2-ylcarbamoyl)quinolin-6-yl]pyridine-2-carboxylic acid] are 1.1 nM and 0.021 nM.
